Reference: patent publication US4826875A, “Pharmaceutical compositions containing levodopa methyl ester, preparation and therapeutic applications thereof” (priority 1986, dated 1989)
Like-named read-outs stand apart in the source and are kept apart here.

Legend:
[1] = cited from earlier work
[2] = clinical; parameters: species or system patients; conditions: human, in vivo, po
From the text: The pharmaceutical composition as per Example 1 above has been orally administered to parkinsonian patients manifesting the on-off phenomenon, in order to evaluate the bioavailability and the clinical effect of LDME in this formulation in comparison with levodopa.
(§1) As previously illustrated, patients manifesting the on-off phenomenon alternate between periods when parkinsonian signs are relatively severe and intervals when parkinsonism is largely, if not completely, replaced by unvoluntary movements.
The absorption of LDME was infact very rapid, reaching the maximum concentration peak at 40-45 minutes from the administration.
Levodopa plasmatic levels after single oral administration
of corresponding doses of active principle (mg 200) re-
spectively of LDME and levodopa in two patients.

[3] = in vivo
[4] = test system: Parkinson's disease; conditions: cited from earlier work
[5] = other experimental patterns; cited from earlier work
[6] = test system: reserpine-treated cats; conditions: cited from earlier work
[7] = Solubility; assay type: physicochemical; conditions: aqueous compositions
[8] = test system: parkinsonian patients manifesting the on-off phenomenon; assay: Clinical effect of oral LDME (Example 1 composition) vs levodopa in parkinsonian patients manifesting the on-off phenomenon; assay type: in vivo
From the text: as §1

[9] = Absorption by rectal route

In the case of N[C@@H](Cc1ccc(O)c(O)c1)C(=O)O [levodopa, (-)-3-(3,4-dihydroxyphenyl)-L-alanine], the solubility [1] is given as “slightly soluble”, the Levodopa plasmatic levels ([2]; 0 min) is given as 0 µg/mL and the Levodopa plasmatic levels ([2]; 0.25 h) is given as 0.35 µg/mL. The Levodopa plasmatic levels ([2]; 0.5 h) was 0.66 µg/mL, the Levodopa plasmatic levels ([2]; 0.75 h) was 0.88 µg/mL and the Levodopa plasmatic levels ([2]; 1 h) was 1.15 µg/mL. The Levodopa plasmatic levels ([2]; 80 min) was 1.67 µg/mL, the Levodopa plasmatic levels ([2]; 100 min) was 1.39 µg/mL and the Levodopa plasmatic levels ([2]; 2 h) was 1.35 µg/mL. The Levodopa plasmatic levels ([2]; 140 min) was 1.05 µg/mL, the Levodopa plasmatic levels ([2]; 160 min) was 0.82 µg/mL and the Levodopa plasmatic levels ([2]; 3 h) was 0.80 µg/mL. For the same compound, the Levodopa plasmatic levels ([2]; 3.5 h) was 0.58 µg/mL, the Levodopa plasmatic levels ([2]; 4 h) was 0.45 µg/mL and the Levodopa plasmatic levels ([2]; 4.5 h) was 0.38 µg/mL. It also gave a Levodopa plasmatic levels ([2]; 5 h) of 0.17 µg/mL, a concentration at 0.25 h ([2]; Levodopa plasmatic levels) of 310 ng/mL and a concentration at 0.5 h ([2]; Levodopa plasmatic levels) of 1050 ng/mL. The concentration at 0.75 h ([2]; Levodopa plasmatic levels) was 1410 ng/mL, the concentration at 1 h ([2]; Levodopa plasmatic levels) was 1130 ng/mL and the concentration at 80 min ([2]; Levodopa plasmatic levels) was 1470 ng/mL. The concentration at 100 min ([2]; Levodopa plasmatic levels) was 1170 ng/mL, the concentration at 2 h ([2]; Levodopa plasmatic levels) was 930 ng/mL and the concentration at 140 min ([2]; Levodopa plasmatic levels) was 1030 ng/mL. The concentration at 160 min ([2]; Levodopa plasmatic levels) was 820 ng/mL, the concentration at 3 h ([2]; Levodopa plasmatic levels) was 650 ng/mL and the concentration at 3.5 h ([2]; Levodopa plasmatic levels) was 700 ng/mL. The concentration at 4 h ([2]; Levodopa plasmatic levels) was 490 ng/mL, the concentration at 4.5 h ([2]; Levodopa plasmatic levels) was 350 ng/mL and the concentration at 5 h ([2]; Levodopa plasmatic levels) was 280 ng/mL. The concentration at 5.5 h ([2]; Levodopa plasmatic levels) was 420 ng/mL, the “rectal absorption / plasma levels by rectal administration” value [3] was “not absorbed by rectal mucosa” and the “duration of efficacy ("end-of-dose deterioration")” value ([4]; chronic treatment per os) was 3 to 4 h. For the same compound, the unwanted effects ([4]; chronic treatment per os) was “abnormal unvoluntary movements” and the clinical response ([4]; constant intravenous infusion) was “a stable clinical response can be maintained for hours”.

In the case of CC(C)C[C@H]1C(=O)N2CCC[C@H]2[C@]2(O)O[C@](NC(=O)[C@@H]3C=C4c5cccc6[nH]c(Br)c(c56)C[C@H]4N(C)C3)(C(C)C)C(=O)N12 [bromocriptine], the “prevention or reduction of response fluctuations” value ([4]; alternative therapies with dopaminergic drugs) is listed as “do not give actual advantages in prevention or reduction of response fluctuations”.

In the case of COC(=O)[C@@H](N)Cc1ccc(O)c(O)c1 [LDME, levodopa methyl ester], the absorption [2] is reported as “very rapid”, the “time of maximum concentration peak from the administration” value [2] is reported as 40 to 45 min and the Levodopa plasmatic levels ([2]; 0 min) is reported as 0 µg/mL. For the same compound, the Levodopa plasmatic levels ([2]; 330 min) was 0.20 µg/mL, the “activity compared with the starting compound (levodopa)” value [5] was “as active as the starting compound” and the “effects compared with levodopa (brain catecholamine levels, conditioned avoidance response)” value [6] was “causes the same effects as levodopa”. For the same compound, the solubility [7] was “high solubility”, the “duration of action ("on" period duration) in respect to levodopa” value ([8]; composition of Example 1) was “superior” and the “onset of the therapeutic effect” value ([8]; composition of Example 1) was 20 to 30 min. The “dyskinesias at the moment of the appearance of the mobility ("on" phase)” value ([8]; composition of Example 1, subjects presenting "long-term syndrome", preliminary trials) was “does not seem to induce dyskinesias” and the “rectal absorption / plasma levels by rectal administration” value [9] was “detectable plasma levels sufficient to assure a therapeutic effect”.
